Molecules are shown by their SMILES.

This data set concerns the target T1, recombinant human monoacylglyceride lipase (rhMAGL) (Homo sapiens, UniProt Q99685).
T1 sequence (Q99685 1-303): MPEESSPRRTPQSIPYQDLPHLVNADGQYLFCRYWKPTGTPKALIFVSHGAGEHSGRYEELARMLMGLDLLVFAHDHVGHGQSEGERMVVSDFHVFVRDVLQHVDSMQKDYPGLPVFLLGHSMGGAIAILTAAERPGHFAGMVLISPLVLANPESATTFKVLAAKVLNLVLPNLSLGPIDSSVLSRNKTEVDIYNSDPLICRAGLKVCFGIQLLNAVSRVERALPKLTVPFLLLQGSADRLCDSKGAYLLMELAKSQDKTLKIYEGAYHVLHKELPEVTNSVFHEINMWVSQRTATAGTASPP
Nature of the data set: In vitro monoglyceride stability of lipid prodrugs with lipoprotein lipase and rhMAGL. The conditions noted are these: 50 μM prodrug, 10 mg/mL BSA, LPL 300 units/mL, 180 vs 30 minutes, 37° C., scale −10 to 10. Type of data set: in vitro ADME. The protocol: The stability of lipid prodrugs of 2-bromo-LSD was evaluated in the presence or absence of recombinant human monoacylglyceride lipase (rhMAGL). 50 µM of prodrug was incubated in 10 mg/mL BSA supplemented with lipoprotein lipase (300 units/mL) and rhMAGL (0-0.5 μg/mL). The concentration of MAGL may be adjusted based on observed activity. Reactions were initiated via the addition of prodrug and incubated at 37° C. for 180 minutes. Aliquots were removed at 30, 60, 120, and 180 minutes and the reaction quenched with the addition of cold acetonitrile spiked with internal standard(s) (1:3 sample to acetonitrile). Samples were vortexed and centrifuged and the supernatant transferred and diluted in 0.1% formic acid water (1:3 supernatant to 0.1% formic acid water). Samples were analyzed via LC-MS. Monoglyceride stability was calculated using the following equations:
LPL MG Ratio=MG Peak Area at 180 minutes for LPL only/MG Peak area at 30 minutes for LPL only
rhMAGLMG Ratio=MG Peak Area at 180 minutes for LPLand rhMAGL/MG Peak Area at 30 minutes for LPLand rhMAGL
MG Stability=((rhMAGLMG Ratio−(1−LPL MG Ratio))*10
Stability is calculated on a scale of −10 to 10, with 10 representing 100% monoglyceride remaining (i.e., highest stability) and −10 representing 100% monoglyceride loss (i.e., lowest stability). Monoglyceride stability is represented by the following categories, wherein A is a stability score of 5 to 10, B is a stability score of 0 to 5, C is a stability score of −5 to 0, and D is a stability score of −5 to −10.
As for `CCCCCCCC/C=C\CCCCCCCC(=O)OCC(COC(=O)CCCCCCC/C=C\CCCCCCCC)OC(=O)CC(C)CC(=O)n1c(Br)c2c3c(cccc31)C1=C[C@@H](C(=O)N(CC)CC)CN(C)[C@@H]1C2` (stereo partly shown) [Compound I-1, 2BL-C5bMe-2-TG-oleate], the “Monoacylglyceride Stability” value is recorded as “A (A is a stability score of 5 to 10)”.
Turning to `CCCCCCCC/C=C\CCCCCCCC(=O)OCC(COC(=O)CCCCCCC/C=C\CCCCCCCC)OC(=O)CC(C)CCCCC(=O)n1c(Br)c2c3c(cccc31)C1=C[C@@H](C(=O)N(CC)CC)CN(C)[C@@H]1C2` (stereo partly shown) [Compound I-2, 2BL-C8bMe-2-TG-oleate], the “Monoacylglyceride Stability” value was “A (A is a stability score of 5 to 10)”.
With `CCCCCCCC/C=C\CCCCCCCC(=O)OCC(COC(=O)CCCCCCC/C=C\CCCCCCCC)OC(=O)CC(C)CCCCCCC(C)CC(=O)n1c(Br)c2c3c(cccc31)C1=C[C@@H](C(=O)N(CC)CC)CN(C)[C@@H]1C2` (stereo partly shown) [Compound I-3, 2BL-C12b′bMe-2-TG-oleate], the “Monoacylglyceride Stability” value was “B (B is a stability score of 0 to 5)”.
`CCCCCCCC/C=C\CCCCCCCC(=O)OCC(COC(=O)CCCCCCC/C=C\CCCCCCCC)OC(=O)CC(C)CC(=O)OCn1c(Br)c2c3c(cccc31)C1=C[C@@H](C(=O)N(CC)CC)CN(C)[C@@H]1C2` (stereo partly shown) [Compound I-4, 2BL-ASI-C5bMe-2-TG-oleate]: the “Monoacylglyceride Stability” value is recorded as “D (D is a stability score of −5 to −10)”.
To `CCCCCCCC/C=C\CCCCCCCC(=O)OCC(COC(=O)CCCCCCC/C=C\CCCCCCCC)OC(=O)CC(C)CCCCC(=O)OCn1c(Br)c2c3c(cccc31)C1=C[C@@H](C(=O)N(CC)CC)CN(C)[C@@H]1C2` (stereo partly shown) [Compound I-5, 2BL-ASI-C8bMe-2-TG-oleate] belongs “C (C is a stability score of −5 to 0)”; to `CCCCCCCC/C=C\CCCCCCCC(=O)OCC(COC(=O)CCCCCCC/C=C\CCCCCCCC)OC(=O)CC(C)CCCCCCCCC(=O)OCn1c(Br)c2c3c(cccc31)C1=C[C@@H](C(=O)N(CC)CC)CN(C)[C@@H]1C2` (stereo partly shown) [Compound I-6, 2BL-ASI-C12bMe-2-TG-oleate], “C (C is a stability score of −5 to 0)”; to `CCCCCCCC(=O)OCC(COC(=O)CCCCCCC)OC(=O)CC(C)CC(=O)OCOC(=O)n1c(Br)c2c3c(cccc31)C1=C[C@@H](C(=O)N(CC)CC)CN(C)[C@@H]1C2` (stereo partly shown) [Compound I-7, 2BL-CASI-C5bMe-2-TG-octanoate], “A (A is a stability score of 5 to 10)”.
On to `CCCCCCCC(=O)OCC(COC(=O)CCCCCCC)OC(=O)CC(C)(C)CC(=O)OCOC(=O)n1c(Br)c2c3c(cccc31)C1=C[C@@H](C(=O)N(CC)CC)CN(C)[C@@H]1C2` [Compound I-9, 2BL-CASI-C5bbGMe-2-TG-octanoate], for which the “Monoacylglyceride Stability” value is on record as “A (A is a stability score of 5 to 10)”.
As for `CCCCCCCC/C=C\CCCCCCCC(=O)OCC(COC(=O)CCCCCCC/C=C\CCCCCCCC)OC(=O)CC(C)CC(=O)OCCCC(=O)n1c(Br)c2c3c(cccc31)C1=C[C@@H](C(=O)N(CC)CC)CN(C)[C@@H]1C2` (stereo partly shown) [Compound I-14, 2BL-FSI4-C5bMe-2-TG-oleate], the “Monoacylglyceride Stability” value is on record as “A (A is a stability score of 5 to 10)”.
As to `CCCCCCCC(=O)OCC(COC(=O)CCCCCCC)OC(=O)CC(C)(C)CC(=O)OCCCC(=O)n1c(Br)c2c3c(cccc31)C1=C[C@@H](C(=O)N(CC)CC)CN(C)[C@@H]1C2` [Compound I-15, 2BL-FSI4-C5bbGMe-2-TG-octanoate], the “Monoacylglyceride Stability” value was “B (B is a stability score of 0 to 5)”.
With `CCCCCCCC(=O)OCC(COC(=O)CCCCCCC)OC(=O)CC(C)(C)CC(=O)OCCCCC(=O)n1c(Br)c2c3c(cccc31)C1=C[C@@H](C(=O)N(CC)CC)CN(C)[C@@H]1C2` [Compound I-16, 2BL-FSI5-C5bbGMe-2-TG-octanoate], the “Monoacylglyceride Stability” value is recorded as “A (A is a stability score of 5 to 10)”.
Turning to `CCCCCCCC/C=C\CCCCCCCC(=O)OCC(COC(=O)CCCCCCC/C=C\CCCCCCCC)OC(=O)CC(C)CC(=O)OCCCCC(=O)n1c(Br)c2c3c(cccc31)C1=C[C@@H](C(=O)N(CC)CC)CN(C)[C@@H]1C2` (stereo partly shown) [Compound I-17, 2BL-FSI5-C5bMe-2-TG-oleate], the “Monoacylglyceride Stability” value was “A (A is a stability score of 5 to 10)”.
With `CCCCCCCC(=O)OCC(COC(=O)CCCCCCC)OC(=O)CC1(CC(=O)OCCCCC(=O)n2c(Br)c3c4c(cccc42)C2=C[C@@H](C(=O)N(CC)CC)CN(C)[C@@H]2C3)CC1` [Compound I-18, 2BL-FSI5-C5bcPr-2-TG-octanoate] the entry was “A (A is a stability score of 5 to 10)”; with `CCCCCCCC(=O)OCC(COC(=O)CCCCCCC)OC(=O)CC(C)(C)CCC(=O)OCCCCC(=O)n1c(Br)c2c3c(cccc31)C1=C[C@@H](C(=O)N(CC)CC)CN(C)[C@@H]1C2` [Compound I-19, 2BL-FSI5-C6bbGMe-2-TG-octanoate], “A (A is a stability score of 5 to 10)”; with `CCCCCCCC/C=C\CCCCCCCC(=O)OCC(COC(=O)CCCCCCC/C=C\CCCCCCCC)OC(=O)CC(C)CC(=O)Oc1ccc(Cn2c(Br)c3c4c(cccc42)C2=C[C@@H](C(=O)N(CC)CC)CN(C)[C@@H]2C3)cc1` (stereo partly shown) [Compound I-20, 2BL-PHB-C5bMe-2-TG-oleate], “A (A is a stability score of 5 to 10)”.
With `CCCCCCCC/C=C\CCCCCCCC(=O)OCC(COC(=O)CCCCCCC/C=C\CCCCCCCC)OC(=O)CC(C)CC(=O)Oc1ccc(COC(=O)n2c(Br)c3c4c(cccc42)C2=C[C@@H](C(=O)N(CC)CC)CN(C)[C@@H]2C3)cc1` (stereo partly shown) [Compound I-21, 2BL-CPHB-C5bMe-2-TG-oleate], the “Monoacylglyceride Stability” value is “A (A is a stability score of 5 to 10)”.
Turning to `CCCCCCCC(=O)OCC(COC(=O)CCCCCCC)OC(=O)CC(C)(C)CCC(=O)OCCCC(=O)n1c(Br)c2c3c(cccc31)C1=C[C@@H](C(=O)N(CC)CC)CN(C)[C@@H]1C2` [Compound I-22, 2BL-FSI4-C6bbGMe-2-TG-octanoate], the “Monoacylglyceride Stability” value was “A (A is a stability score of 5 to 10)”.
To `CCCCCCCC(=O)OCC(COC(=O)CCCCCCC)OC(=O)CC(C)(C)CCC(=O)OCOC(=O)n1c(Br)c2c3c(cccc31)C1=C[C@@H](C(=O)N(CC)CC)CN(C)[C@@H]1C2` [Compound I-23, 2BL-CASI-C6bbGMe-2-TG-octanoate] belongs “A (A is a stability score of 5 to 10)”; to `CCCCCCCC/C=C\CCCCCCCC(=O)OCC(COC(=O)CCCCCCC/C=C\CCCCCCCC)OC(=O)CC(C)CCCCCCC(=O)n1c(Br)c2c3c(cccc31)C1=C[C@@H](C(=O)N(CC)CC)CN(C)[C@@H]1C2` (stereo partly shown) [Compound I-24, 2BL-C10bMe-2-TG-oleate], “A (A is a stability score of 5 to 10)”.
For `CCCCCCCC(=O)OCC(COC(=O)CCCCCCC)OC(=O)CC1(CC(=O)OCn2c(Br)c3c4c(cccc42)C2=C[C@@H](C(=O)N(CC)CC)CN(C)[C@@H]2C3)CC1` [Compound I-25, 2BL-ASI-C5bcPr-2-TG-octanoate], the “Monoacylglyceride Stability” value is “D (D is a stability score of −5 to −10)”.
To `CCCCCCCC(=O)OCC(COC(=O)CCCCCCC)OC(=O)CC1(CC(=O)n2c(Br)c3c4c(cccc42)C2=C[C@@H](C(=O)N(CC)CC)CN(C)[C@@H]2C3)CC1` [Compound I-26, 2BL-C5bcPr-2-TG-octanoate] belongs “A (A is a stability score of 5 to 10)”; to `CCCCCCCC(=O)OCC(COC(=O)CCCCCCC)OC(=O)CC(C)(C)CCC(=O)OCn1c(Br)c2c3c(cccc31)C1=C[C@@H](C(=O)N(CC)CC)CN(C)[C@@H]1C2` [Compound I-27, 2BL-ASI-C6bbGMe-2-TG-octanoate], “D (D is a stability score of −5 to −10)”.
Regarding `CCCCCCCC(=O)OCC(COC(=O)CCCCCCC)OC(=O)CC(C)(C)CC(=O)OCn1c(Br)c2c3c(cccc31)C1=C[C@@H](C(=O)N(CC)CC)CN(C)[C@@H]1C2` [Compound I-28, 2BL-ASI-C5bbGMe-2-TG-octanoate], the “Monoacylglyceride Stability” value is “D (D is a stability score of −5 to −10)”.
For the molecule `CCCCCCCC(=O)OCC(COC(=O)CCCCCCC)OC(=O)CC1(CC(=O)OCOC(=O)n2c(Br)c3c4c(cccc42)C2=C[C@@H](C(=O)N(CC)CC)CN(C)[C@@H]2C3)CC1` [I-9′, 2BL-CASI-C5bcPr-2-TG-octanoate], the “Monoacylglyceride Stability” value is given as “A (A is a stability score of 5 to 10)”.
Turning to `CCCCCCCC(=O)OCC(COC(=O)CCCCCCC)OC(=O)CC1(CC(=O)OCCCC(=O)n2c(Br)c3c4c(cccc42)C2=C[C@@H](C(=O)N(CC)CC)CN(C)[C@@H]2C3)CC1` [I-15′, 2BL-FSI4-C5bcPr-2-TG-octanoate], the “Monoacylglyceride Stability” value is given as “A (A is a stability score of 5 to 10)”.
